Experimental data reported in patent EP0307172A2, “Improvements in or relating to specific 5-HT3 antagonists” (ELI LILLY AND COMPANY, priority 1987, dated 1989).

Experiments:
cisplatin-induced emesis = test: Blockade of cisplatin-induced emesis in dogs; type: in vivo; conditions: Canis lupus familiaris, iv, read-out: ED₅₀
From the text: These compounds may also be used as antiemetic agents. […] Since 5HT₃ receptors are prevalent in the GI tract, other potential uses include other diseases of the gastro- intestinal tract, such as ischemic bowel, esophageal reflux, etc.

5-HT₃ receptor = molecular target: T1, 5-HT₃ receptor (Rattus norvegicus, UniProt P35563); test: Inhibition of serotonin-induced Von Bezold-Jarisch reflex in rats; type: in vivo; conditions: rat, iv, 15 minutes prior to 5-HT, read-out: Percent Inhibition of Reflex in Rats; for inhibition at 0.001 mg/kg: 0.001 mg/kg I.V.; for inhibition at 0.003 mg/kg: 0.003 mg/kg I.V.; for inhibition at 0.01 mg/kg: 0.01 mg/kg I.V.
T1 construct: from tissue
T1 sequence (P35563 24-483): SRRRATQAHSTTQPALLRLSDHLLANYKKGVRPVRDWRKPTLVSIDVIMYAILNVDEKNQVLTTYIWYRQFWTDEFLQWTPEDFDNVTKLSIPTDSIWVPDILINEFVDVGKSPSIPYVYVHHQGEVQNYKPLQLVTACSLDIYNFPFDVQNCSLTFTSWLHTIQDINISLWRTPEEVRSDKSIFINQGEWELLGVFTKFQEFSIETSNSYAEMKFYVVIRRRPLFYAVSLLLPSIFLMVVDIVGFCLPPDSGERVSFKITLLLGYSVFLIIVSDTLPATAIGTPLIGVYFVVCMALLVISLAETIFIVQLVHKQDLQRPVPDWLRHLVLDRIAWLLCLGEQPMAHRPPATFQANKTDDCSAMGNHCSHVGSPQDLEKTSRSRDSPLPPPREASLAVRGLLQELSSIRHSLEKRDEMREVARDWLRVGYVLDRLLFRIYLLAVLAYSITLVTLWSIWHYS
From the text: The compounds of Formula I of this invention are long-acting, orally effective specific 5-HT₃ receptor antagonists, rendering them useful for the treatment of migraine. Because of this mechanism, the compounds of this invention should also be useful for treating emesis, motion sickness, ischemic bowel disease, diabetic gastric paresis, relaxation of the gastro-intestinal tract for instrumentation, other gastro-intestinal pain following surgery, obstetrics or as in abdominal cramps, and for treating CNS disorders such as schizophrenia and anxiety. The ability of these compounds to antagonize the effects of 5-HT was assessed by their inhibition of the Von Bezold-Jarisch reflex induced by 5-HT injected intravenously into the rat (See Paintal, Physiol. Rev., 53, 159 (1973)). When administered by the intravenous route 15 minutes prior to the administration of 5-HT, the compounds of this invention were effective in inhibiting the serotonin-induced Bezold-Jarisch reflex as summarized in Table 1 below: Table 1

Structure (SMILES) | inhibition at 0.001 mg/kg (5-HT₃ receptor) [%] | inhibition at 0.003 mg/kg (5-HT₃ receptor) [%] | inhibition at 0.01 mg/kg (5-HT₃ receptor) [%] | inhibition at 0.03 mg/kg (5-HT₃ receptor; 0.03 mg/kg I.V.) [%] | ED50 (cisplatin-induced emesis) [mg/kg]
CN1[C@@H]2CC[C@H]1C[C@@H](NC(=O)c1cccc3c1OC(C)(C)CC3)C2 [Example 36, Endo-2,2-dimethyl-N-(8-methyl-8-azabicyclo[3.2.1]oct-3-yl)-8-chromancarboxamide (Z)-2-butenedioate] | 4 |  | 76 |  | 
CC1(C)Cc2cc(Cl)cc(C(=O)NC3CN4CCC3CC4)c2O1 (centres unmarked) [Example 49, 2,3-Dihydro-5-chloro-2,2-dimethyl-N-(1-azabicyclo[2.2.2]oct-3-yl)-7-benzofurancarboxamide (Z)-2-butenedioate] |  | 40 | 89 |  | 
CN1[C@@H]2CC[C@H]1C[C@@H](OC(=O)c1cccc3c1OC(C)(C)C3)C2 [Example 24, Endo-2,3-dihydro-2,2-dimethyl-7-benzofurancarboxylic acid, 8-methyl-8-azabicyclo[3.2.1]oct-3-yl ester (Z)-2-butenedioate] |  | 21 | 38 |  | 
CN1[C@@H]2CC[C@H]1C[C@@H](NC(=O)c1ccc3c(c1)CC(C)(C)O3)C2 [Example 20, Endo-2,3-dihydro-2,2-dimethyl-N-(8-methyl-8-azabicyclo[3.2.1]oct-3-yl)-5-benzofurancarboxamide (Z)-2-butenedioate] |  |  | 16 |  | 
CC1Cc2cccc(C(=O)O[C@H]3C[C@H]4CC[C@@H](C3)N4C)c2O1 (mixture of isomers) [Example 35, dl-endo-2,3-dihydro-2-methyl-7-benzofurancarboxylic acid, 8-methyl-8-azabicyclo[3.2.1]oct-3-yl ester (Z)-2-butenedioate] |  |  | 31 |  | 
CN1[C@@H]2CC[C@H]1C[C@@H](OC(=O)c1cc(Cl)c3c(c1)CC(C)(C)O3)C2 [Example 29, Endo-2,2-dimethyl-7-chloro-2,3-dihydro-5-benzofurancarboxylic acid, 8-methyl-8-azabicyclo[3.2.1]oct-3-yl ester (Z)-2-butenedioate] |  |  | -4 |  | 

Now from value to compound, other results behind:

inhibition at 0.001 mg/kg (5-HT₃ receptor) [%] | inhibition at 0.003 mg/kg (5-HT₃ receptor) [%] | inhibition at 0.01 mg/kg (5-HT₃ receptor) [%] | inhibition at 0.03 mg/kg (5-HT₃ receptor; 0.03 mg/kg I.V.) [%] | Structure (SMILES) | ED50 (cisplatin-induced emesis) [mg/kg]
66 | 90 |  |  | CN1[C@@H]2CC[C@H]1C[C@@H](NC(=O)c1cc(Cl)cc3c1OC(C)(C)C3)C2 [Example 19, Endo-5-chloro-2,3-dihydro-2,2-dimethyl-N-(8-methyl-8-azabicyclo[3.2.1.]oct-3-yl)-7-benzofurancarboxamide (Z)-2-butenedioate] | 0.0356
58 | 80 | 80 |  | CC1Cc2cc(Cl)cc(C(=O)N[C@H]3C[C@H]4CC[C@@H](C3)N4C)c2O1 (mixture of isomers) [Example 32, dl-endo-5-chloro-2,3-dihydro-2-methyl-N-(8-methyl-8-azabicyclo[3.2.1]oct-3-yl)-7-benzofurancarboxamide (Z)-2-butenedioate] | 
 |  | 20 |  | COc1cc2c(c(C(=O)N[C@H]3C[C@H]4CC[C@@H](C3)N4C)c1)OC(C)C2 (mixture of isomers) [Example 27, dl-endo-2,3-dihydro-5-methoxy-2-methyl-N-(8-methyl-8-azabicyclo[3.2.1]oct-3-yl)-7-benzofurancarboxamide (Z)-2-butenedioate] | 
 |  | 54 |  | CN1[C@@H]2CC[C@H]1C[C@@H](NC(=O)c1cc(O)cc3c1OC(C)(C)C3)C2 [Example 62, Endo-2,3-dihydro-5-hydroxy-2,2-dimethyl-N-(8-methyl-8-azabicyclo[3.2.1]oct-3-yl)-7-benzofurancarboxamide (Z)-2-butenedioate] | 
 |  | -1 |  | COc1cc2c(c(C(=O)N[C@H]3C[C@H]4CC[C@@H](C3)N4C)c1)OC(C)(C)C2 [Example 41, Endo-2,3-dihydro-2,2-dimethyl-5-methoxy-N-(8-methyl-8-azabicyclo[3.2.1]oct-3-yl)-7-benzofurancarboxamide (Z)-2-butenedioate] | 
0.3 | 11 | 87 |  | Cc1cc2c(c(C(=O)N[C@H]3C[C@H]4CC[C@@H](C3)N4C)c1)OC(C)(C)C2 [Example 21, Endo-2,3-dihydro-2,2,5-trimethyl-N-(8-methyl-8-azabicyclo[3.2.1]oct-3-yl)-7-benzofurancarboxamide (Z)-2-butenedioate] | 
 |  | 22 | 57 | CC1Cc2cccc(C(=O)N[C@H]3C[C@H]4CC[C@@H](C3)N4C)c2O1 (mixture of isomers) [Example 33, dl-endo-2,3-dihydro-2-methyl-N-(8-methyl-8-azabicyclo[3.2.1]oct-3-yl)-7-benzofurancarboxamide (Z)-2-butenedioate] | 
